{"source": "ChEMBL document CHEMBL1201862", "about": "“PubChem BioAssay data set” (2004)", "assay_in_all_cases": "inhibition of tumour cell growth, NCI panel, 48 h", "key": {"[1]": {"test_system": "SK-OV-3"}, "[2]": {"test_system": "A549"}, "[3]": {"test_system": "M14"}, "[4]": {"test_system": "LOX IMVI"}, "[5]": {"test_system": "CCRF-CEM"}, "[6]": {"test_system": "NCI-H226"}, "[7]": {"test_system": "HT-29"}, "[8]": {"test_system": "HL-60"}, "[9]": {"test_system": "DU-145"}, "[10]": {"test_system": "MDA-MB-435"}, "[11]": {"test_system": "NCI/ADR-RES"}, "[12]": {"test_system": "Hs-578T"}, "[13]": {"test_system": "ACHN"}, "[14]": {"test_system": "SK-MEL-2"}, "[15]": {"test_system": "OVCAR-5"}, "[16]": {"test_system": "SW-620"}, "[17]": {"test_system": "HOP-62"}, "[18]": {"test_system": "K562"}, "[19]": {"test_system": "UACC-62"}}, "note": "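Assay format: 96-well plates, 48-hour exposure. The concentration for 50% growth inhibition is given as GI50.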 Calls of active or inactive are those of the source. No stated cut-off is given here; in the data, active = GI50 up to about 1.1 µM and inactive = higher."}
{"smiles": "CSc1ccc2c(cc1=O)[C@@H](NC(=O)c1ccc([N+](=O)[O-])cc1)CCc1cc(O)c(O)c(O)c1-2", "values": [{"measurement": "GI50", "setting": "[1]", "result": "> 100 µM (inactive)"}, {"measurement": "GI50", "setting": "[2]", "result": "28.1 µM (inactive)"}, {"measurement": "GI50", "setting": "[3]", "result": "30.5 µM (inactive)"}, {"measurement": "GI50", "setting": "[4]", "result": "34.8 µM (inactive)"}, {"measurement": "GI50", "setting": "[5]", "result": "4.58 µM (inactive)"}, {"measurement": "GI50", "setting": "[6]", "result": "46.5 µM (inactive)"}, {"measurement": "GI50", "setting": "[7]", "result": "17.8 µM (inactive)"}, {"measurement": "GI50", "setting": "[8]", "result": "11.7 µM (inactive)"}, {"measurement": "GI50", "setting": "[9]", "result": "> 100 µM (inactive)"}, {"measurement": "GI50", "setting": "[10]", "result": "16.6 µM (inactive)"}, {"measurement": "GI50", "setting": "[11]", "result": "17.4 µM (inactive)"}, {"measurement": "GI50", "setting": "[12]", "result": "21.2 µM (inactive)"}, {"measurement": "GI50", "setting": "[13]", "result": "29.7 µM (inactive)"}, {"measurement": "GI50", "setting": "[14]", "result": "> 100 µM (inactive)"}, {"measurement": "GI50", "setting": "[15]", "result": "> 100 µM (inactive)"}, {"measurement": "GI50", "setting": "[16]", "result": "43.6 µM (inactive)"}, {"measurement": "GI50", "setting": "[17]", "result": "16.2 µM (inactive)"}, {"measurement": "GI50", "setting": "[18]", "result": "18.4 µM (inactive)"}, {"measurement": "GI50", "setting": "[19]", "result": "53.3 µM (inactive)"}]}
{"smiles": "C=CCOc1ccc(C2(c3ccc(OCC=C)cc3)C(=O)Nc3ccccc32)cc1", "values": [{"measurement": "GI50", "setting": "[1]", "result": "> 10 µM (inactive)"}, {"measurement": "GI50", "setting": "[2]", "result": "> 10 µM (inactive)"}, {"measurement": "GI50", "setting": "[3]", "result": "> 10 µM (inactive)"}, {"measurement": "GI50", "setting": "[4]", "result": "> 10 µM (inactive)"}, {"measurement": "GI50", "setting": "[5]", "result": "> 10 µM (inactive)"}, {"measurement": "GI50", "setting": "[6]", "result": "> 10 µM (inactive)"}, {"measurement": "GI50", "setting": "[7]", "result": "> 10 µM (inactive)"}, {"measurement": "GI50", "setting": "[8]", "result": "> 10 µM (inactive)"}, {"measurement": "GI50", "setting": "[9]", "result": "> 10 µM (inactive)"}, {"measurement": "GI50", "setting": "[10]", "result": "> 10 µM (inactive)"}, {"measurement": "GI50", "setting": "[11]", "result": "> 10 µM (inactive)"}, {"measurement": "GI50", "setting": "[12]", "result": "1.46 µM (inactive)"}, {"measurement": "GI50", "setting": "[13]", "result": "> 10 µM (inactive)"}, {"measurement": "GI50", "setting": "[14]", "result": "> 10 µM (inactive)"}, {"measurement": "GI50", "setting": "[15]", "result": "> 10 µM (inactive)"}, {"measurement": "GI50", "setting": "[16]", "result": "> 10 µM (inactive)"}, {"measurement": "GI50", "setting": "[17]", "result": "> 10 µM (inactive)"}, {"measurement": "GI50", "setting": "[18]", "result": "> 10 µM (inactive)"}, {"measurement": "GI50", "setting": "[19]", "result": "> 10 µM (inactive)"}]}
{"smiles": "N#Cc1c(N)n(-c2nc3ccccc3s2)c(=O)c2cc([N+](=O)[O-])ccc12", "values": [{"measurement": "GI50", "setting": "[1]", "result": "25.4 µM (inactive)"}, {"measurement": "GI50", "setting": "[2]", "result": "14.6 µM (inactive)"}, {"measurement": "GI50", "setting": "[3]", "result": "23.2 µM (inactive)"}, {"measurement": "GI50", "setting": "[4]", "result": "7.03 µM (inactive)"}, {"measurement": "GI50", "setting": "[5]", "result": "0.0453 µM (active)"}, {"measurement": "GI50", "setting": "[6]", "result": "6.93 µM (inactive)"}, {"measurement": "GI50", "setting": "[7]", "result": "3.5 µM (inactive)"}, {"measurement": "GI50", "setting": "[8]", "result": "7.74 µM (inactive)"}, {"measurement": "GI50", "setting": "[9]", "result": "25.6 µM (inactive)"}, {"measurement": "GI50", "setting": "[10]", "result": "25 µM (inactive)"}, {"measurement": "GI50", "setting": "[11]", "result": "6.46 µM (inactive)"}, {"measurement": "GI50", "setting": "[12]", "result": "9.16 µM (inactive)"}, {"measurement": "GI50", "setting": "[13]", "result": "20.3 µM (inactive)"}, {"measurement": "GI50", "setting": "[14]", "result": "15.4 µM (inactive)"}, {"measurement": "GI50", "setting": "[15]", "result": "24.8 µM (inactive)"}, {"measurement": "GI50", "setting": "[16]", "result": "26.2 µM (inactive)"}, {"measurement": "GI50", "setting": "[17]", "result": "7.08 µM (inactive)"}, {"measurement": "GI50", "setting": "[18]", "result": "15.7 µM (inactive)"}, {"measurement": "GI50", "setting": "[19]", "result": "21.3 µM (inactive)"}]}
{"smiles": "O=C1C(=C(I)I)c2ccccc2-c2ccccc21", "values": [{"measurement": "GI50", "setting": "[1]", "result": "14.8 µM (inactive)"}, {"measurement": "GI50", "setting": "[2]", "result": "16.3 µM (inactive)"}, {"measurement": "GI50", "setting": "[3]", "result": "3.02 µM (inactive)"}, {"measurement": "GI50", "setting": "[4]", "result": "2.08 µM (inactive)"}, {"measurement": "GI50", "setting": "[5]", "result": "0.386 µM (active)"}, {"measurement": "GI50", "setting": "[6]", "result": "19.7 µM (inactive)"}, {"measurement": "GI50", "setting": "[7]", "result": "3.21 µM (inactive)"}, {"measurement": "GI50", "setting": "[8]", "result": "0.998 µM (active)"}, {"measurement": "GI50", "setting": "[9]", "result": "3.67 µM (inactive)"}, {"measurement": "GI50", "setting": "[10]", "result": "2.24 µM (inactive)"}, {"measurement": "GI50", "setting": "[11]", "result": "3.24 µM (inactive)"}, {"measurement": "GI50", "setting": "[12]", "result": "7.83 µM (inactive)"}, {"measurement": "GI50", "setting": "[13]", "result": "2.32 µM (inactive)"}, {"measurement": "GI50", "setting": "[14]", "result": "6.31 µM (inactive)"}, {"measurement": "GI50", "setting": "[15]", "result": "5.47 µM (inactive)"}, {"measurement": "GI50", "setting": "[16]", "result": "1.63 µM (inactive)"}, {"measurement": "GI50", "setting": "[17]", "result": "11.9 µM (inactive)"}, {"measurement": "GI50", "setting": "[18]", "result": "1.85 µM (inactive)"}, {"measurement": "GI50", "setting": "[19]", "result": "4.52 µM (inactive)"}]}
{"smiles": "O=C1CSC(c2cccc([N+](=O)[O-])c2)N1c1ccc(-n2c(-c3ccccc3)nc3ccccc3c2=O)cc1", "note": "(centres undefined)", "values": [{"measurement": "GI50", "setting": "[1]", "result": "26.2 µM (inactive)"}, {"measurement": "GI50", "setting": "[2]", "result": "> 100 µM (inactive)"}, {"measurement": "GI50", "setting": "[3]", "result": "> 100 µM (inactive)"}, {"measurement": "GI50", "setting": "[4]", "result": "> 100 µM (inactive)"}, {"measurement": "GI50", "setting": "[5]", "result": "> 100 µM (inactive)"}, {"measurement": "GI50", "setting": "[6]", "result": "> 100 µM (inactive)"}, {"measurement": "GI50", "setting": "[7]", "result": "> 100 µM (inactive)"}, {"measurement": "GI50", "setting": "[8]", "result": "> 100 µM (inactive)"}, {"measurement": "GI50", "setting": "[9]", "result": "> 100 µM (inactive)"}, {"measurement": "GI50", "setting": "[10]", "result": "> 100 µM (inactive)"}, {"measurement": "GI50", "setting": "[11]", "result": "> 100 µM (inactive)"}, {"measurement": "GI50", "setting": "[12]", "result": "78.2 µM (inactive)"}, {"measurement": "GI50", "setting": "[13]", "result": "> 100 µM (inactive)"}, {"measurement": "GI50", "setting": "[14]", "result": "56.9 µM (inactive)"}, {"measurement": "GI50", "setting": "[15]", "result": "> 100 µM (inactive)"}, {"measurement": "GI50", "setting": "[16]", "result": "> 100 µM (inactive)"}, {"measurement": "GI50", "setting": "[17]", "result": "> 100 µM (inactive)"}, {"measurement": "GI50", "setting": "[18]", "result": "> 100 µM (inactive)"}, {"measurement": "GI50", "setting": "[19]", "result": "13.9 µM (inactive)"}]}
{"smiles": "COC(=O)C(C)(/N=C/c1ccccc1)c1ccccc1", "note": "(centres undefined)", "values": [{"measurement": "GI50", "setting": "[1]", "result": "> 100 µM (inactive)"}, {"measurement": "GI50", "setting": "[2]", "result": "> 100 µM (inactive)"}, {"measurement": "GI50", "setting": "[3]", "result": "> 100 µM (inactive)"}, {"measurement": "GI50", "setting": "[4]", "result": "> 100 µM (inactive)"}, {"measurement": "GI50", "setting": "[5]", "result": "> 100 µM (inactive)"}, {"measurement": "GI50", "setting": "[6]", "result": "> 100 µM (inactive)"}, {"measurement": "GI50", "setting": "[7]", "result": "> 100 µM (inactive)"}, {"measurement": "GI50", "setting": "[8]", "result": "> 100 µM (inactive)"}, {"measurement": "GI50", "setting": "[9]", "result": "> 100 µM (inactive)"}, {"measurement": "GI50", "setting": "[10]", "result": "> 100 µM (inactive)"}, {"measurement": "GI50", "setting": "[11]", "result": "> 100 µM (inactive)"}, {"measurement": "GI50", "setting": "[12]", "result": "> 100 µM (inactive)"}, {"measurement": "GI50", "setting": "[13]", "result": "> 100 µM (inactive)"}, {"measurement": "GI50", "setting": "[14]", "result": "> 100 µM (inactive)"}, {"measurement": "GI50", "setting": "[15]", "result": "> 100 µM (inactive)"}, {"measurement": "GI50", "setting": "[16]", "result": "> 100 µM (inactive)"}, {"measurement": "GI50", "setting": "[17]", "result": "> 100 µM (inactive)"}, {"measurement": "GI50", "setting": "[18]", "result": "> 100 µM (inactive)"}, {"measurement": "GI50", "setting": "[19]", "result": "> 100 µM (inactive)"}]}
